From ChEMBL document CHEMBL5725232, “Inhibitors of matrix metalloproteinases” (2016)

Key:
[1] = target: 72 kDa type IV collagenase (Homo sapiens, UniProt P08253); assay: (§1) Activity Assay: Stock solution of substrate (Mca-Lys-Pro-Leu-Gly-Leu-Dpa-Ala-Arg-NH2) was prepared in DMSO at a concentration of 6 mM. Assays were performed in an assay buffer (50 mM Tris pH 7.5, 300 mM NaCl, 10 uM ZnSO4, 5 mM CaCl2, 0.005% Brij-35). The final DMSO concentration in all assays was 1.0%. […] The assays were carried out at 37° C. The fluorescence changes, resulting from the substrate cleavage, were detected using excitation at 340 nm and emission wavelength of 405 nm using a Wallac 1420 Microplate Reader. The reaction mixtures were preincubated with the inhibitors for 30 minutes. The reactions were started by the addition of MMP substrate, and the fluorescence intensity changes were measured after 60 minutes. The obtained fluorescence values were normalized and % inhibition values calculated. Dose response curves were determined from 6 concentration points using three fold dilution steps, each concentration point was determined in dupllicate. IC50 values were calculated from the dose response curves.
[2] = target: Matrix metalloproteinase-9 (Homo sapiens, UniProt P14780); assay: as §1
Interstitial collagenase = target: T1, Interstitial collagenase (Homo sapiens, UniProt P03956); assay: as §1
T1 sequence (P03956 whole entry): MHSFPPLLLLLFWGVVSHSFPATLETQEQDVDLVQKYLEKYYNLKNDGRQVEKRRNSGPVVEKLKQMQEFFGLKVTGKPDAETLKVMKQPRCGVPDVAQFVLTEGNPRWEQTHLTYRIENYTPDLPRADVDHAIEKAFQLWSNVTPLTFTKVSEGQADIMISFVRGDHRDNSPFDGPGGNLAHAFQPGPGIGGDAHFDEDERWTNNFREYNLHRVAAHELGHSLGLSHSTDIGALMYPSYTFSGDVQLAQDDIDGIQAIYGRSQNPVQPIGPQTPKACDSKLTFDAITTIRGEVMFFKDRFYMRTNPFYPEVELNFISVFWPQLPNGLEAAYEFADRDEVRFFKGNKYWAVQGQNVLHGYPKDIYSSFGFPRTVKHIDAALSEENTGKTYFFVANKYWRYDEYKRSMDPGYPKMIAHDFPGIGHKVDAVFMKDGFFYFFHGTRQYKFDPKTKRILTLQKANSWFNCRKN

Collagenase 3 = Collagenase 3 (Homo sapiens, UniProt P45452); assay: as §1, with “The fluorescence changes, resulting from the substrate cleavage, were detected using excitation at 340 nm and emission wavelength of 405 nm using a Wallac 1420 Microplate Reader.” left out

72 kDa type IV collagenase, sequence (P08253 whole entry): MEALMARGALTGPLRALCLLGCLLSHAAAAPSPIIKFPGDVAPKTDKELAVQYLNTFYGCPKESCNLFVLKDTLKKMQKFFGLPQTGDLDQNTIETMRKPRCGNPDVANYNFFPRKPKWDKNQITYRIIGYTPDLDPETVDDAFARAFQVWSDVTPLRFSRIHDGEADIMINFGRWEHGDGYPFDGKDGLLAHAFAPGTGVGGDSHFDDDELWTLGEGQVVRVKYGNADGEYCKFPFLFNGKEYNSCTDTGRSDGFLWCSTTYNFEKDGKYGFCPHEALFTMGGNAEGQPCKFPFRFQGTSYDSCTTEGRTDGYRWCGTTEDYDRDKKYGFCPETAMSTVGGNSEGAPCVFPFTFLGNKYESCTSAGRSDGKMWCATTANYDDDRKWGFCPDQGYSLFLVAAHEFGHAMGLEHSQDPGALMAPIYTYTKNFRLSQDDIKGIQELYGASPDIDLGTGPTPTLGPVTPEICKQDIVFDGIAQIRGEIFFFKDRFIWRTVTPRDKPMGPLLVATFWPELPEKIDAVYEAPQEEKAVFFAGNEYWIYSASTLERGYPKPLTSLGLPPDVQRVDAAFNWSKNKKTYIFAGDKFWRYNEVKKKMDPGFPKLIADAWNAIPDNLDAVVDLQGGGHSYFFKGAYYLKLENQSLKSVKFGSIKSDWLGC
Matrix metalloproteinase-9, sequence (P14780 whole entry): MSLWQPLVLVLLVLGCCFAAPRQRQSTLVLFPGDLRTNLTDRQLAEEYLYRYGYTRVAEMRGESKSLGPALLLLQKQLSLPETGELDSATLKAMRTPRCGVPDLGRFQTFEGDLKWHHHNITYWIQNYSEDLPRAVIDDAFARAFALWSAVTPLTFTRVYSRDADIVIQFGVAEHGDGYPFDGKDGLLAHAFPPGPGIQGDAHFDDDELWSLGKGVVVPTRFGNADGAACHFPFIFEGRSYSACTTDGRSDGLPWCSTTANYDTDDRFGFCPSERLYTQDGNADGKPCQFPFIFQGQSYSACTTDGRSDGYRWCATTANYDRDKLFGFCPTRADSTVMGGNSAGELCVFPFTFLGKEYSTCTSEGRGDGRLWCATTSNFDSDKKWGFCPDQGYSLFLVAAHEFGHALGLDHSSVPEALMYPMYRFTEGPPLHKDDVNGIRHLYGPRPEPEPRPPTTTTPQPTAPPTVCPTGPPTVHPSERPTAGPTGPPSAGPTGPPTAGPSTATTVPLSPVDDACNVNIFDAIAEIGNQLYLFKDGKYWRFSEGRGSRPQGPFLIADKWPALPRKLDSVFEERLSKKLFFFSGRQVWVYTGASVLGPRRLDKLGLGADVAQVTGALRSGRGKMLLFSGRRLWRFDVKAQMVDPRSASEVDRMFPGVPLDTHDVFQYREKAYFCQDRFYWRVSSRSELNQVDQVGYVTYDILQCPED

| IC50 [1] [µM] | IC50 [2] [µM] | IC50 (Interstitial collagenase) [µM] | IC50 (Collagenase 3) [µM] | Structure (SMILES) |
| --- | --- | --- | --- | --- |
| > 500 | 140 | 280 | 27 | CCOC(=O)c1csc(CN(Cc2ccc(F)cc2)Cc2ccc(OCc3ccccc3)cc2)n1 |
| 26 | 10 | – | 1.76 | O=C(O)c1csc(CN(Cc2ccc(OCc3ccccc3)cc2)CC(c2ccccc2)c2ccccc2)n1 |
